In patent publication US20200038513A1, “MODULATORS OF FAK PROTEOLYSIS AND ASSOCIATED METHODS OF USE” (ARVINAS OPERATIONS, INC., priority 2018, published 2020):
Like-named read-outs stand apart in the source and are kept apart here.

Columns and labels:
[1] = system: MDA-MB-231 cells; assay: Transwell invasion assay; type: cell-based, human; details: 100 nM, 24 hours
Experimental: On the first day, 0.2× Basement Membrane Extract (BME) working solution was prepared by diluting 5×BME stock solution in 1× Travigen Inc. coating buffer. Briefly, 100 μL of 10× coating buffer was diluted in 900 μL of sterile water to make 1× coating buffer. Then 960 μL of 1× coating buffer was mixed with 40 μL of 5×BME to make working 0.2×BME solution. Corning Transwell permeable inserts (Costar Transwell chambers, Corning) were placed on a 24-well plate and 100 μL of 0.2×BME solution was added to each Transwell insert and incubated for 16 hours. Following day, MDA-MB-231 cells were trypsinized and cells were suspended in serum free medium. Approximately 100 μL from cell suspension (˜3×10^5 cells) was added to each Transwell insert followed by another 100 μL of exemplary compound or control containing serum free RPMI medium. The lower chamber was filled with 10% FBS containing RPMI medium and the whole setup was incubated at 37° C. 1-5% CO2 for 24 hours. After 24 hours, cell culture medium was removed from both lower and upper chambers and Transwell inserts were washed three times with PBS. […] Images were then analyzed by ImageJ software and number of cells on the bottom side of the membrane were counted and presented as a bar graph using Prism 7.0 (GraphPad). Differences among groups were analyzed by Welch's t-test and considered significant when P<0.05. […]

[2] = Pharmacokinetics of intraperitoneal or intravenous injection in CD1 mice; type: in vivo; details: for Conc. (ng/mL) Mouse 1 / Conc. (ng/mL) Mouse 2 / Conc. (ng/mL) Mouse 3 / concentration at 0.25 h / concentration at 0.5 h / concentration at 1 h / concentration at 2 h / concentration at 4 h / concentration at 8 h / concentration at 0.033 h / concentration at 0.083 h: CD1 mice plasma; for concentration at 0.25 h / concentration at 0.5 h / concentration at 1 h / concentration at 2 h / concentration at 4 h / concentration at 8 h / AUC(0-t) / half-life / concentration at 0.033 h / concentration at 0.083 h: male, CD1, mouse, plasma
How it was run: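 Male CD1 mice, 6-8 weeks old, 3 per group, dosed IV (5 s injection; 10% HP-b-CD, 40 mM sodium acetate, 40 mM NaCl, pH 4.5) or IP (5% EtOH, 5% Solutol HS15 in D5W). Serial dorsal metatarsal vein blood, terminal heart puncture; plasma analysed by LC/MS/MS after acetonitrile precipitation, calibration 1-2000 ng/mL.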

[3] = PPB; type: in vitro ADME; details: plasma
[4] = ip, 10 mg/kg, IP 10 mg/kg, read-out: Conc. (ng/mL) Mouse 1
[5] = ip, 10 mg/kg, IP 10 mg/kg, read-out: Conc. (ng/mL) Mouse 2
[6] = ip, 10 mg/kg, IP 10 mg/kg, read-out: Conc. (ng/mL) Mouse 3
[7] = ip, 10 mg/kg, IP 10 mg/kg, read-out: Mean
[8] = iv, 1 mg/kg, IV 1.0 mg/kg, read-out: Conc. (ng/mL) Mouse 1
[9] = iv, 1 mg/kg, IV 1.0 mg/kg, read-out: Conc. (ng/mL) Mouse 2
[10] = iv, 1 mg/kg, IV 1.0 mg/kg, read-out: Conc. (ng/mL) Mouse 3
[11] = iv, 1 mg/kg, IV 1.0 mg/kg, read-out: Mean

Cc1ncsc1-c1ccc(CNC(=O)[C@@H]2C[C@@H](O)CN2C(=O)[C@@H](NC(=O)CCOCCOc2ccc(Nc3ncc(C(F)(F)F)c(NCc4cccc(N(C)S(C)(=O)=O)c4)n3)cc2)C(C)(C)C)cc1 [Compound 102, (2S,4R)-1-((S)-3,3-dimethyl-2-(3-(2-(4-((4-((3-(N-methylmethylsulfonamido)benzyl)amino)-5-(trifluoromethyl)pyrimidin-2-yl)amino)phenoxy)ethoxy)propanamido)butanoyl)-4-hydroxy-N-(4-(4-methylthiazol-5-yl)benzyl)pyrrolidine-2-carboxamide]
reduction of cell invasion [1]: 65%
Conc. (ng/mL) Mouse 1 ([2]; IP 10 mg/kg, 24 h): BLOQ
Conc. (ng/mL) Mouse 2 ([2]; IP 10 mg/kg, 24 h): BLOQ
Conc. (ng/mL) Mouse 3 ([2]; IP 10 mg/kg, 24 h): BLOQ
Conc. (ng/mL) Mouse 1 ([2]; IV 1.0 mg/kg, 4 h): BLOQ
Conc. (ng/mL) Mouse 2 ([2]; IV 1.0 mg/kg, 4 h): BLOQ
Conc. (ng/mL) Mouse 1 ([2]; IV 1.0 mg/kg, 8 h): BLOQ
Conc. (ng/mL) Mouse 2 ([2]; IV 1.0 mg/kg, 8 h): BLOQ
Conc. (ng/mL) Mouse 3 ([2]; IV 1.0 mg/kg, 8 h): BLOQ
Conc. (ng/mL) Mouse 1 ([2]; IV 1.0 mg/kg, 24 h): BLOQ
Conc. (ng/mL) Mouse 2 ([2]; IV 1.0 mg/kg, 24 h): BLOQ
Conc. (ng/mL) Mouse 3 ([2]; IV 1.0 mg/kg, 24 h): BLOQ
concentration at 0.25 h [2, 4]: 521 ng/mL
concentration at 0.25 h [2, 5]: 432 ng/mL
concentration at 0.25 h [2, 6]: 338 ng/mL
concentration at 0.25 h [2, 7]: 431 ng/mL
concentration at 0.5 h [2, 4]: 674 ng/mL
concentration at 0.5 h [2, 5]: 546 ng/mL
concentration at 0.5 h [2, 6]: 551 ng/mL
concentration at 0.5 h [2, 7]: 591 ng/mL
concentration at 1 h [2, 4]: 2540 ng/mL
concentration at 1 h [2, 5]: 2130 ng/mL
concentration at 1 h [2, 6]: 2120 ng/mL
concentration at 1 h [2, 7]: 2260 ng/mL
concentration at 2 h [2, 4]: 1690 ng/mL
concentration at 2 h [2, 5]: 1070 ng/mL
concentration at 2 h [2, 6]: 1700 ng/mL
concentration at 2 h [2, 7]: 1490 ng/mL
concentration at 4 h ([2]; ip, 10 mg/kg, IP 10 mg/kg, 4 h, read-out: Conc. (ng/mL) Mouse 1): 560 ng/mL
concentration at 4 h ([2]; ip, 10 mg/kg, IP 10 mg/kg, 4 h, read-out: Conc. (ng/mL) Mouse 2): 529 ng/mL
concentration at 4 h ([2]; ip, 10 mg/kg, IP 10 mg/kg, 4 h, read-out: Conc. (ng/mL) Mouse 3): 559 ng/mL
concentration at 4 h ([2]; ip, 10 mg/kg, IP 10 mg/kg, 4 h, read-out: Mean): 549 ng/mL
concentration at 8 h ([2]; ip, 10 mg/kg, IP 10 mg/kg, 8 h, read-out: Conc. (ng/mL) Mouse 1): 36.4 ng/mL
concentration at 8 h ([2]; ip, 10 mg/kg, IP 10 mg/kg, 8 h, read-out: Conc. (ng/mL) Mouse 2): 92.3 ng/mL
concentration at 8 h ([2]; ip, 10 mg/kg, IP 10 mg/kg, 8 h, read-out: Conc. (ng/mL) Mouse 3): 124 ng/mL
concentration at 8 h ([2]; ip, 10 mg/kg, IP 10 mg/kg, 8 h, read-out: Mean): 84 ng/mL
AUC(0-t) ([2]; ip, 10 mg/kg, read-out: AUClast (h * ng/mL) IP): 6260 ng·h/mL
half-life ([2]; ip, 10 mg/kg, read-out: T ½ (h) IP (converted)): 1.46 h
concentration at 0.033 h [2, 8]: 1920 ng/mL
concentration at 0.033 h [2, 9]: 1820 ng/mL
concentration at 0.033 h [2, 10]: 1850 ng/mL
concentration at 0.033 h [2, 11]: 1860 ng/mL
concentration at 0.083 h [2, 8]: 249 ng/mL
concentration at 0.083 h [2, 9]: 368 ng/mL
concentration at 0.083 h [2, 10]: 333 ng/mL
concentration at 0.083 h [2, 11]: 317 ng/mL
concentration at 0.25 h [2, 8]: 55.9 ng/mL
concentration at 0.25 h [2, 9]: 67.4 ng/mL
concentration at 0.25 h [2, 10]: 71.8 ng/mL
concentration at 0.25 h [2, 11]: 65.1 ng/mL
concentration at 0.5 h [2, 8]: 23.7 ng/mL
concentration at 0.5 h [2, 9]: 33.2 ng/mL
concentration at 0.5 h [2, 10]: 37.6 ng/mL
concentration at 0.5 h [2, 11]: 31.5 ng/mL
concentration at 1 h [2, 8]: 11.8 ng/mL
concentration at 1 h [2, 9]: 16.7 ng/mL
concentration at 1 h [2, 10]: 18.4 ng/mL
concentration at 1 h [2, 11]: 15.6 ng/mL
concentration at 2 h [2, 8]: 6.9 ng/mL
concentration at 2 h [2, 9]: 9.2 ng/mL
concentration at 2 h [2, 10]: 6.75 ng/mL
concentration at 2 h [2, 11]: 7.62 ng/mL
concentration at 4 h ([2]; iv, 1 mg/kg, IV 1.0 mg/kg, 4 h, read-out: Conc. (ng/mL) Mouse 3): 2.09 ng/mL
AUC(0-t) ([2]; iv, 1 mg/kg, read-out: AUClast (h * ng/mL) IV): 264 ng·h/mL
half-life ([2]; iv, 1 mg/kg, read-out: T ½ (h) IV (converted)): 0.905 h
fraction unbound [3]: 0.0066
